# Tests used:
# [1] = test system: Akt; experiment: TPA-induced phosphorylation of Akt at Thr308 (western blot); type: in vivo, mouse; conditions: TPA, 6 h post treatment
# Procedure: (§1) FIG. 5. Inhibitory effect of Lupeol on TPA-induced activation of PI3K and phosphorylation of Akt in CD-1 mice: At different times after treatment, the animals were sacrificed, epidermal protein lysate was prepared, and PI3K and phosphorylated (Thr^308) Akt and total Akt protein expression were determined. The immunoblots shown here are representative of three independent experiments with similar results. The values above each lane indicate relative density of the band normalized to β-actin.
# (§2) The animals were shaved on the dorsal side of the skin, divided into four groups and treated topically on the shaved area with either 0.4 ml vehicle (acetone), or TPA (3.2 nmol/0.4 ml acetone/animal, v/v), or Lupeol (1 or 2 mg/0.2 ml acetone/animal, w/v) followed 30 min later with TPA (3.2 nmol/0.2 ml acetone/animal). Animals were sacrificed at different times point i.e. 6, 12, 24 and 48 h post TPA treatment. […]
# (§3) Epidermis from the whole skin was separated as described earlier (Katiyar et al., 1999) and was homogenized in ice-cold lysis buffer [50 mM Tris-HCl, 150 mM NaCl, 1 mM EGTA, 1 mM EDTA, 20 mM NaF, 100 mM Na3VO4, 0.5% NP-40, 1% Triton X-100, 1 mM PMSF (pH 7.4)] with freshly added protease inhibitor cocktail, Protease Inhibitor Cocktail Set III (Calbiochem, La Jolla, Calif., USA). […] The protein content in the lysates was measured by DC BioRad assay (BioRad Laboratories, Hercules, Calif.) as per the manufacturer's protocol.
# (§4) For western blot analysis, 40 μg of the protein was resolved over 8-12% polyacrylamide gels and transferred to a nitrocellulose membrane. […] This was followed by incubation with anti-mouse or anti-rabbit secondary antibody horse-radish peroxidase (Amersham Life Sciences, Inc., USA) for 1 h and then washed several times and detected by chemiluminescence ECL kit, (Amersham Life Sciences, Inc., USA) and autoradiography using XAR-5 film obtained from Eastman Kodak Co. (Rochester, N.Y., USA). […]
# [2] = test system: IKKα protein; experiment: TPA-induced activation of IKKα (western blot); type: in vivo, mouse; conditions: TPA topical
# Procedure: FIG. 6. Inhibitory effect of Lupeol on TPA-induced activation of IKKα, and phosphorylation and degradation of IκBα in CD-1 mice: At different times after treatment, the animals were sacrificed, epidermal cytosolic was prepared, and protein expression was determined. Equal loading was confirmed by stripping the immunoblot and reprobing it for β-actin. The immunoblots shown here are representative of three independent experiments with similar results. The values above each lane indicate relative density of the band normalized to β-actin.
# as §2, with “acetone/animal).” for “acetone/animal). Animals were sacrificed at different times point i.e. 6, 12, 24 and 48 h post TPA treatment.”
# as §3, with “protocol. […]” for “protocol.”
# [3] = test system: epidermal iNOS protein; experiment: TPA-induced epidermal iNOS protein expression (western blot); type: in vivo, mouse; conditions: TPA alone topical
# Procedure: (§5) FIG. 4. Inhibitory effect of Lupeol on TPA-induced epidermal ODC, iNOS and COX-2 protein expression in CD-1 mice: At different times after treatment, the animals were sacrificed, epidermal protein lysate was prepared, and ODC and COX-2 protein expression were determined. Equal loading of protein was confirmed by stripping the immunoblot and reprobing it for β-actin. The immunoblots shown here are representative of three independent experiments with similar results. The values above each lane indicate relative density of the band normalized to β-actin.
# as §2, §3, §4
# [4] = test system: catalytic (p110) and regulatory (p85) subunit of PI3K; experiment: TPA-induced epidermal PI3K expression (western blot); type: in vivo, mouse
# Procedure: as §1
# (§6) The animals were shaved on the dorsal side of the skin, divided into four groups and treated topically on the shaved area with either 0.4 ml vehicle (acetone), or TPA (3.2 nmol/0.4 ml acetone/animal, v/v), or Lupeol (1 or 2 mg/0.2 ml acetone/animal, w/v) followed 30 min later with TPA (3.2 nmol/0.2 ml acetone/animal). Animals were sacrificed at different times point i.e. 6, 12, 24 and 48 h post TPA treatment. The epidermis was separated from the whole skin and homogenized in 0.1 M Tris-HCl buffer (pH 7.2) using a Polytron tissue homogenizer (Brinkmann Instruments, Westbury, N.Y., USA) at 100,000×g supernatant, and microsomal fractions were prepared as described earlier (Katiyar and Mukhtar, 1997). The sample of 6 h treatment group was used to assess the ODC activity as this time point has previously been shown for optimal induction of the enzyme (Katiyar er al., 1996).
# as §3, with “USA). The homogenate was then centrifuged at 14,000×g for 25 minutes at 4° C. and the supernatant (total cell lysate) was collected, aliquoted and stored at −80° C. For the preparation of nuclear lysate, 0.2 g of the epidermis was homogenized in 1 ml of ice-cold phosphate-buffered saline (pH 7.6) and centrifuged at 12,000×g for 5 min at 4° C.” for “USA).”
# as §4
# [5] = test system: epidermal COX-2 protein; experiment: TPA-induced epidermal COX-2 protein expression (western blot); type: in vivo, mouse; conditions: TPA topical, 6 h post treatment
# Procedure: as §5, §6
# as §3, with “USA). The homogenate was then centrifuged at 14,000×g for 25 minutes at 4° C. and the supernatant (total cell lysate) was collected, aliquoted and stored at −80° C. For the preparation of nuclear lysate, 0.2 g of the epidermis was homogenized in 1 ml of ice-cold phosphate-buffered saline (pH 7.6) and centrifuged at 12,000×g for 5 min at 4° C.” for “USA).”
# as §4
# [6] = test system: epidermal ODC protein; experiment: TPA-induced epidermal ODC protein expression (western blot); type: in vivo, mouse; conditions: TPA topical
# Procedure: as §5, §2, §3, §4
# [7] = test system: CD-1 mouse skin; experiment: TPA-induced cutaneous edema, skin punch weight; type: in vivo; conditions: TPA alone, 3.2 nmole/mouse topical
# Procedure: Studies from the inventors' laboratory and by other have shown that TPA application to mouse skin results in cutaneous edema (Katiyar et at, 1996; Liang et at, 2002). In the present study, the inventors evaluated the protective effects of topical application of Lupeol in TPA-mediated cutaneous edema in CD-1 mouse. The inventors tested four doses 0.25, 0.5, 1 and 2 mg of Lupeol per animal in the inventors' preliminary studies. […] The CD-1 mice were topically treated with Lupeol (1 and 2 mg/mouse) and 30 min later were topically treated with TPA (3.2 nmole/mouse). […] At least four determinations were made at different dorsal skin sites per mouse in each group. The data represents the mean±SE of eight mice (*p<0.01 vs TPA).
# as §6
# To assess the inhibitory effect of pre-application of Lupeol on TPA-induced edema, 1 cm-diameter punches of skin from vehicle-, Lupeol-, TPA- or Lupeol- and TPA-treated mice were removed, made free of fat pads, and weighed immediately. After drying for 24 h at 50° C., the skin punches were reweighed, and the loss of water content was determined. The difference in the amount of water gain between the control (vehicle treated) and TPA treated represented the extent of edema induced by TPA, whereas that between the control vehicle and Lupeol plus TPA represented the inhibitory effect of Lupeol. For the hyperplasia study, skin was removed, fixed in 10% formalin, and embedded in paraffin. Vertical sections (5 μm) were cut, mounted on a glass slide, and stained with hematoxylin and eosin.
smiles,measurement,setting,value
"CCCCCCCCCCCCCC(=O)O[C@@H]1[C@@H](C)[C@@]2(O)[C@@H](C=C(CO)C[C@]3(O)C(=O)C(C)=C[C@@H]23)[C@@H]2C(C)(C)[C@]12OC(C)=O [TPA, 12-O-tetradecanoyl-phorbol acetate, reference compound]",maximum phosphorylation of Akt,[1],3.8 fold
same,increase in the expression of IKKα protein,[2],5.5 fold
same,increase in iNOS protein expression vs vehicle treated controls,[3],5 fold
same,increase in expression of catalytic (p110) and regulatory (p85) subunit of PI3K,[4]; TPA topical,2 to 3 fold
same,induction in the expression of catalytic subunit p110,"[4]; TPA, 6 h post treatment",3 fold
same,maximum increase in epidermal COX-2 protein expression vs acetone control,[5],2.7 fold
same,increase in epidermal ODC protein level vs acetone treated control,[6],4 fold
same,Skin punch weight 24 hrs,[7],23.5 ± 0.5 mg/cm2
same,Skin punch weight 48 hrs,[7],25.5 ± 0.75 mg/cm2

# Source: patent US8618082B2, “Lupeol anti-tumor agent and uses thereof” (Wisconsin Alumni Research Foundation, priority 2004, dated 2013)
